The test system of the experiment is methane production in rumen fluid. The experiment in a line: Rumen in vitro (RIV) assay, methane production from rumen fluid incubations. It is filed as cell-based, cattle. The following applies: for inhibition at 10 µM / inhibition at 50 µM / inhibition at 2 µM: Bos taurus, read-out: RIV % methane reduction +/− SD; for inhibition (methane, RIV positive control): 30 μM. The method, then:
The compounds of the present invention were initially screened for activity using an in vitro fully automated incubation system for the measurement of total gas production and gas composition (methane and hydrogen). The system used is described in detail in the paper by Muetzel et al. (2014; Animal Feed Science and Technology 196, 1-11). The system in this specification is referred to as the rumen in vitro system or RIV. The RIV system provides a relatively simple tool for determining the rate and production of methane and also whether the rate and production of methane is inhibited or reduced by a particular compound or feed. Rumen in vitro assays use rumen fluid from donor animals (typically either sheep or cattle) which is typically combined with a buffer and then incubated in sealed fermentation vessels at 39° C. for either 24 or 48 h. These assays systems have been well-characterised and used by the scientific community over the last two decades (Rymer et al. 2005). The system that has been used here to characterise the effects of inhibitors on methane production and gas production, and the formation of H2, was described by Muetzel et al. (2014). Rumen in vitro assay systems reflect what can occur in the rumen in vivo, but only short-term, due to their short incubation times (typically not exceeding 48 h) which is limited by its buffering capacity and the fact that it is a closed system. Stock solutions of inhibitors were re-suspended in dimethylformamide (DMF) at concentrations 1000-fold higher than the highest used for the assays. Any further dilutions were also prepared using DMF. The total amount of inhibitor solution added to the rumen fluid-buffer mixture (60 mL) was 60 μl. Incubations used 60 ml of medium containing 12 ml of filtered rumen fluid and 48 ml of buffer in serum bottles for 24-48 h, essentially as described by Muetzel et al. (2014). Two fistulated cattle were used as donor animals for rumen fluid and treatments were incubated in duplicate bottles. Sets of duplicate incubation vials that contained ryegrass (with rumen fluid-buffer mixture), and ryegrass with 30 μM bromoethanesulfonate (BES) were also incubated as negative and positive controls, respectively. One experiment consists of 2 replicates of an inhibitor at any one concentration run at the same time, and a run can contain up to 32 bottle, including positive (30 µM BES) and negative (no inhibitor added) controls. Compound 1, for example, was tested using the 60 mL rumen in vitro assay system at 50 μM, 10 μM, and 2 μM final concentrations and compared to a positive control with 30 µM BES.

Regarding `O=C(O)CCC(=O)N1N=C(c2ccc(-c3ccoc3)cc2)CC1c1ccc2nccnc2c1` (stereo not drawn) [Compound 108, 4-(3-(4-(Furan-3-yl)phenyl)-5-(quinoxalin-6-yl)-4,5-dihydro-1H-pyrazol-1-yl)-4-oxobutanoic acid], the inhibition at 10 µM is 6.3 ± 6.1% and the inhibition at 50 µM was determined as 48.3 ± 2.8%.

For `CCC(C)Oc1ccc(-c2ccc(C3=NN(C(=O)CCC(=O)O)C(c4ccc5nccnc5c4)C3)cc2)cc1` (stereo not drawn) [Compound 83, 4-(3-(4′-(sec-Butoxy)-[1,1′-biphenyl]-4-yl)-5-(quinoxalin-6-yl)-4,5-dihydro-1H-pyrazol-1-yl)-4-oxobutanoic acid], the inhibition at 2 µM is under 5% and the inhibition at 10 µM was 69.2 ± 1.8%.

For the compound `CS(=O)(=O)NC(=O)CCC(=O)N1N=C(c2ccc(-c3ccccc3)cc2)CC1c1ccc2nccnc2c1` (stereo not drawn) [Compound 57, 4-(3-([1,1′-Biphenyl]-4-yl)-5-(quinoxalin-6-yl)-4,5-dihydro-1H-pyrazol-1-yl)-N-(methylsulfonyl)-4-oxobutanamide], the inhibition at 10 µM stood at 62.7 ± 4.4% and the inhibition at 50 µM worked out at 89.7 ± 0.5%.

On to `CC(C)S(=O)(=O)NC(=O)CCC(=O)N1N=C(c2cccc(-c3ccccc3)c2)CC1c1ccc2nccnc2c1` (stereo not drawn) [Compound 119, 4-(3-([1,1′-Biphenyl]-3-yl)-5-(quinoxalin-6-yl)-4,5-dihydro-1H-pyrazol-1-yl)-N-(isopropylsulfonyl)-4-oxobutanamide], for which the inhibition at 2 µM came out at 11.9 ± 2.7% and the inhibition at 10 µM is 81.8 ± 2.7%.

As for `O=C(O)CCC(=O)N1N=C(c2ccccc2-c2ccccc2)CC1c1ccc2nccnc2c1` (stereo not drawn) [Compound 12, 4-(3-([1,1′-Biphenyl]-2-yl)-5-(quinoxalin-6-yl)-4,5-dihydro-1H-pyrazol-1-yl)-4-oxobutanoic acid], the inhibition at 10 µM came out at 51.6 ± 1.5% and the inhibition at 50 µM was found to be 95.9 ± 0.9%.

For the compound `O=C(CCC(=O)N1N=C(c2ccc(-c3ccccc3)cc2)CC1c1ccc2nccnc2c1)NS(=O)(=O)c1ccccc1` (stereo not drawn) [Compound 123, 4-(3-([1,1′-Biphenyl]-4-yl)-5-(quinoxalin-6-yl)-4,5-dihydro-1H-pyrazol-1-yl)-4-oxo-N-(phenylsulfonyl) butanamide], the inhibition at 2 µM was determined as 7.4 ± 0.7% and the inhibition at 10 µM was determined as 77 ± 4.2%.

On to `O=S(=O)(O)CCBr` [BES, bromoethanesulfonate, reference compound], for which the “inhibition (methane, RIV positive control)” value is 70.5% (at 10 hours) and 55.6% (at 18 hours).

Consider `COc1cccc(-c2ccc(C3=NN(C(=O)CCC(=O)O)C(c4ccc5nccnc5c4)C3)cc2)c1` (stereo not drawn) [Compound 90, 4-(3-(3′-Methoxy-[1,1′-biphenyl]-4-yl)-5-(quinoxalin-6-yl)-4,5-dihydro-1H-pyrazol-1-yl)-4-oxobutanoic acid], for which the inhibition at 10 µM is 6.9 ± 2.2% and the inhibition at 50 µM amounted to 84.2%.

For the compound `O=C(O)CC(=O)N1N=C(c2ccc(Cl)cc2)CC1c1ccc2nccnc2c1` (stereo not drawn) [Compound 49, 3-(3-(4-Chlorophenyl)-5-(quinoxalin-6-yl)-4,5-dihydro-1H-pyrazol-1-yl)-3-oxopropanoic acid], the inhibition at 50 µM came to 8.1 ± 7.7%.

With `O=C(O)CCC(=O)N1N=C(c2cccc(-c3ccccc3)c2)CC1c1ccc2nccnc2c1` (stereo not drawn) [Compound 13, 4-(3-([1,1′-Biphenyl]-3-yl)-5-(quinoxalin-6-yl)-4,5-dihydro-1H-pyrazol-1-yl)-4-oxobutanoic acid], the inhibition at 2 µM was 5 ± 0.4%, the inhibition at 10 µM worked out at 74.4 ± 3.3% and the inhibition at 50 µM was found to be 97.2 ± 0.1%.

For the compound `CCOc1ccc(-c2ccc(C3=NN(C(=O)CCC(=O)O)C(c4ccc5nccnc5c4)C3)cc2)cc1` (stereo not drawn) [Compound 79, 4-(3-(4′-Ethoxy-[1,1′-biphenyl]-4-yl)-5-(quinoxalin-6-yl)-4,5-dihydro-1H-pyrazol-1-yl)-4-oxobutanoic acid], the inhibition at 2 µM came to 25.2 ± 2.5% and the inhibition at 10 µM came to 81.5 ± 0.1%.

Turning to `COc1ccc(C2CC(c3ccc(Cl)cc3)=NN2C(=O)CCC(=O)O)cc1O` (stereo not drawn) [Compound 44, 4-(3-(4-Chlorophenyl)-5-(3-hydroxy-4-methoxyphenyl)-4,5-dihydro-1H-pyrazol-1-yl)-4-oxobutanoic acid], the inhibition at 50 µM was 31.3 ± 0.8%.

In the case of `O=C(O)CCCN1N=C(c2ccc(Cl)cc2)CC1c1ccc2nccnc2c1` (stereo not drawn) [Compound 53, 4-(3-(4-Chlorophenyl)-5-(quinoxalin-6-yl)-4,5-dihydro-1H-pyrazol-1-yl)butanoic acid], the inhibition at 10 µM came to 19.4 ± 1.9% and the inhibition at 50 µM was 82.1 ± 1.2%.

On to `O=C(O)CCC(=O)N1N=C(c2ccc(-c3cc(Cl)cc(Cl)c3)cc2)CC1c1ccc2nccnc2c1` (stereo not drawn) [Compound 28, 4-(3-(3′,5′-Dichloro-[1,1′-biphenyl]-4-yl)-5-(quinoxalin-6-yl)-4,5-dihydro-1H-pyrazol-1-yl)-4-oxobutanoic acid], for which the inhibition at 2 µM is 8 ± 2.1%, the inhibition at 10 µM was 84 ± 0.8% and the inhibition at 50 µM was 96.1 ± 0.1%.

Turning to `O=C(O)CCC(=O)N1N=C(c2ccc3nccnc3c2)CC1c1ccc(Cl)cc1` (stereo not drawn) [Compound 77, 4-(5-(4-Chlorophenyl)-3-(quinoxalin-6-yl)-4,5-dihydro-1H-pyrazol-1-yl)-4-oxobutanoic acid], the inhibition at 50 µM amounted to 77 ± 0.4%.

As to `O=C(O)CCC(=O)N1N=C(c2ccc(Cl)c(Cl)c2)CC1c1ccc2nccnc2c1` (stereo not drawn) [Compound 11, 4-(3-(3,4-Dichlorophenyl)-5-(quinoxalin-6-yl)-4,5-dihydro-1H-pyrazol-1-yl)-4-oxobutanoic acid], the inhibition at 50 µM was 62.8 ± 3.4%.

`CS(=O)(=O)NC(=O)c1cccc(N2N=C(c3ccc(Cl)cc3)CC2c2ccc3nccnc3c2)c1` (stereo not drawn) [Compound 72, 3-(3-(4-Chlorophenyl)-5-(quinoxalin-6-yl)-4,5-dihydro-1H-pyrazol-1-yl)-N-(methylsulfonyl)benzamide]: the inhibition at 2 µM worked out at 14.3 ± 4.7% and the inhibition at 10 µM was 82.5 ± 2.5%.

On to `O=C(O)CCC(=O)N1N=C(c2ccc3ccccc3c2)CC1c1ccc2nccnc2c1` (stereo not drawn) [Compound 31, 4-(3-(Naphthalen-2-yl)-5-(quinoxalin-6-yl)-4,5-dihydro-1H-pyrazol-1-yl)-4-oxobutanoic acid], for which the inhibition at 50 µM was determined as 56.6 ± 6.9%.

Consider `O=C(O)CCC(=O)N1N=C(c2ccc(-c3ccc(N4CCCCC4)cc3)cc2)CC1c1ccc2nccnc2c1` (stereo not drawn) [Compound 96, 4-Oxo-4-(3-(4′-(piperidin-1-yl)-[1,1′-biphenyl]-4-yl)-5-(quinoxalin-6-yl)-4,5-dihydro-1H-pyrazol-1-yl)butanoic acid], for which the inhibition at 10 µM was determined as 8.2 ± 2.5% and the inhibition at 50 µM worked out at 73.3 ± 12.1%.

For the compound `O=C(CCC(=O)N1N=C(c2cccc(-c3ccccc3)c2)CC1c1ccc2nccnc2c1)NS(=O)(=O)c1ccccc1` (stereo not drawn) [Compound 122, 4-(3-([1,1′-Biphenyl]-3-yl)-5-(quinoxalin-6-yl)-4,5-dihydro-1H-pyrazol-1-yl)-4-oxo-N-(phenylsulfonyl) butanamide], the inhibition at 2 µM was 7.4 ± 4.7% and the inhibition at 10 µM is 78.9 ± 2.3%.

On to `O=C(O)CCC(=O)N1N=C(c2ccc(-c3ccc(OC(F)(F)F)c(Cl)c3)cc2)CC1c1ccc2nccnc2c1` (stereo not drawn) [Compound 102, 4-(3-(3′-Chloro-4′-(trifluoromethoxy)-[1,1′-biphenyl]-4-yl)-5-(quinoxalin-6-yl)-4,5-dihydro-1H-pyrazol-1-yl)-4-oxobutanoic acid], for which the inhibition at 10 µM came out at 52.8 ± 2.5%.

Turning to `O=C(O)CCC(=O)N1N=C2c3ccc(Cl)cc3CCC2C1c1ccc2nccnc2c1` (stereo not drawn) [Compound 73, 4-(7-Chloro-3-(quinoxalin-6-yl)-3,3a,4,5-tetrahydro-2H-benzo[g]indazol-2-yl)-4-oxobutanoic acid], the inhibition at 10 µM was 18.8 ± 1.6% and the inhibition at 50 µM came out at 78 ± 1.9%.

Consider `CC(C)c1ccc(-c2ccc(C3=NN(C(=O)CCC(=O)O)C(c4ccc5nccnc5c4)C3)cc2)cc1` (stereo not drawn) [Compound 24, 4-(3-(4′-Isopropyl-[1,1′-biphenyl]-4-yl)-5-(quinoxalin-6-yl)-4,5-dihydro-1H-pyrazol-1-yl)-4-oxobutanoic acid], for which the inhibition at 2 µM was found to be 21.8%, the inhibition at 10 µM is 94.1 ± 0.3% and the inhibition at 50 µM stood at 97.8 ± 0.05%.

Turning to `O=C(O)CCC(=O)N1N=C(c2ccc(Cl)cc2)CC1c1cnc2ccccc2n1` (stereo not drawn) [Compound 32, 4-(3-(4-Chlorophenyl)-5-(quinoxalin-2-yl)-4,5-dihydro-1H-pyrazol-1-yl)-4-oxobutanoic acid], the inhibition at 10 µM was under 5% and the inhibition at 50 µM came out at 81 ± 2%.
